Values quoted from earlier work in patent US6723506B2, “Method of identifying PAX8-PPAR gamma-nucleic acid molecules” (Brigham and Women's Hospital, priority 2000, dated 2004).

Tested on: PML-RAR (retinoic acid receptor α) translocation
Settings: patients harboring the PML-RAR translocation

## CC1=C(/C=C/C(C)=C/C=C/C(C)=C/C(=O)O)C(C)(C)CCC1 [all-trans retinoic acid]
  remission in APML patients: induces remission in nearly every patient
